# Assay results published in patent US8501713B2, “Drug combinations for the treatment of duchenne muscular dystrophy” (Summit Corporation PLC, priority 2007, dated 2013).
# Test system: Utrophin A promoter linked to a luciferase reporter gene
# Test: Luciferase reporter assay (murine H2K cells)
# Format: cell-based
# Conditions: for activity at 10 µM: Mus musculus, H2K mdx, read-out: Activity
# Procedure, shortened: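 Immortalized mdx mouse H2K myoblasts stably carrying a ~5 kb utrophin A promoter–luciferase construct, kept at 33° C, 10% CO2. After 24 hrs plating, compound added at 10 μM final for 48 hrs; luciferase light output read after in-situ lysis.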
# [1] = luciferase level relative to control, H2K/mdx/Utro A reporter cells, compound 10 μM final concentration
# [2] = luciferase reporter assay in murine H2K cells, classified relative to control
SMILES,activity at 10 µM [1],also measured
"COc1ccc2cc(-c3nc4cc(NC(=O)C(C)C)ccc4o3)ccc2c1 [Example 412, N-(2-(6-methoxynaphthalen-2-yl)benzo[d]oxazol-5-yl)isobutyramide]",< 200%,
"CC(C)C(=O)Nc1ccc2oc(-c3ccc4cc(Br)ccc4c3)nc2c1 [Example 413, N-(2-(6-bromonaphthalen-2-yl)benzo[d]oxazol-5-yl)isobutyramide]",< 200%,
"CC(C)C(=O)Nc1ccc2oc(-c3ccc(Cl)cc3)cc2c1 [Example 414, 2-(4′-chlorophenyl)-5-isobutyramido-benzofuran]",< 200%,
"CC(C)C(=O)Nc1ccc2oc(-c3cnc4ccccc4c3)nc2c1 [Example 415, N-(2-(quinolin-3-yl)benzo[d]oxazol-5-yl)isobutyramide]",> 401%,
"CC(C)C(=O)Nc1ccc2oc(-c3ccc4ccccc4n3)nc2c1 [Example 416, N-(2-(quinolin-2-yl)benzo[d]oxazol-5-yl)isobutyramide]",> 401%,
"CCC(=O)c1ccc2oc(-c3ccc(Cl)cc3)nc2c1 [Example 417, 1-(2-(4-chlorophenyl)benzo[d]oxazol-5-yl)propan-1-one]",> 401%,
"CCS(=O)(=O)c1ccc2oc(-c3ccc(C)s3)nc2c1 [Example 418, 5-(ethylsulfonyl)-2-(5-methylthiophen-2-yl)benzo[d]oxazole]",> 401%,
"CC(C)C(=O)Nc1ccc2oc(-c3ccco3)nc2c1 [Example 419, N-(2-(furan-2-yl)benzo[d]oxazol-5-yl)isobutyramide]",> 401%,
"CC(=O)c1ccc2oc(-c3ccc(Cl)cc3)nc2c1 [Example 420, 1-(2-(4-chlorophenyl)benzo[d]oxazol-5-yl)ethanone]",> 401%,
"Nc1ccc2oc(-c3ccc(C4CCCCC4)cc3)nc2c1 [Example 421, 2-(4-cyclohexylphenyl)benzo[d]oxazol-5-amine]",> 401%,
"CCS(=O)(=O)c1ccc2oc(-c3ccc4ccccc4n3)nc2c1 [Example 422, 5-(ethylsulfonyl)-2-(quinolin-2-yl)benzo[d]oxazole]",> 401%,
"CCS(=O)(=O)c1ccc2oc(-c3cnc4ccccc4c3)nc2c1 [Example 423, 5-(ethylsulfonyl)-2-(quinolin-3-yl)benzo[d]oxazole]",> 401%,
"CCS(=O)(=O)c1ccc2oc(-c3ccc4cc(Br)ccc4c3)nc2c1 [Example 424, 2-(6-bromonaphthalen-2-yl)-5-(ethylsulfonyl)benzo[d]oxazole]",< 200%,
"CCS(=O)(=O)c1ccc2oc(-c3ccc(C4CCCCC4)cc3)nc2c1 [Example 425, 2-(4-cyclohexylphenyl)-5-(ethylsulfonyl)benzo[d]oxazole]",< 200%,
"CCS(=O)(=O)c1ccc2oc(-c3ccc(-c4ccccc4)cc3)nc2c1 [Example 426, 2-(biphenyl-4-yl)-5-(ethylsulfonyl)benzo[d]oxazole]",< 200%,
"CCS(=O)(=O)c1ccc2oc(-c3cccc4ccccc34)nc2c1 [Example 427, 5-(ethylsulfonyl)-2-(naphthalen-1-yl)benzo[d]oxazole]",< 200%,
"Nc1ccc(-c2nc3cc(Cl)c(Cl)cc3o2)c(O)c1 [Example 428, 5-amino-2-(5,6-dichlorobenzo[d]oxazol-2-yl)phenol]",301 to 400%,
"CCS(=O)(=O)c1ccc2oc(-c3cccs3)nc2c1 [Example 429, 5-(ethylsulfonyl)-2-(thiophen-2-yl)benzo[d]oxazole]",201 to 300%,
"CC(C)C(=O)Nc1ccc2oc(-c3ccc(C4CCCCC4)cc3)nc2c1 [Example 430, N-(2-(4-cyclohexylphenyl)benzo[d]oxazol-5-yl)isobutyramide]",< 200%,
"CCS(=O)(=O)c1ccc2oc(-c3ccc4cc(F)ccc4c3)nc2c1 [Example 431, 5-(ethylsulfonyl)-2-(6-fluoronaphthalen-2-yl)benzo[d]oxazole]",< 200%,
"CCS(=O)(=O)c1ccc2oc(-c3ccc4sccc4c3)nc2c1 [Example 432, 2-(benzo[b]thiophen-5-yl)-5-(ethylsulfonyl)benzo[d]oxazole]",> 401%,
"CC(=O)Nc1ccc(-c2nc3cc(C)c(C)cc3o2)c(O)c1 [Example 433, N-(4-(5,6-dimethylbenzo[d]oxazol-2-yl)-3-hydroxyphenyl)acetamide]",201 to 300%,
"CC(C)S(=O)(=O)c1ccc2oc(-c3ccc(Cl)c(Cl)c3)nc2c1 [Example 434, 2-(3,4-dichlorophenyl)-5-(isopropylsulfonyl)benzo[d]oxazole]",301 to 400%,
"CCS(=O)(=O)c1ccc2oc(-c3sccc3C)nc2c1 [Example 436, 5-(ethylsulfonyl)-2-(3-methylthiophen-2-yl)benzo[d]oxazole]",201 to 300%,
"CCS(=O)(=O)c1ccc2oc(-c3ccc4ccccc4c3O)nc2c1 [Example 437, 2-(5-(ethylsulfonyl)benzo[d]oxazol-2-yl)naphthalen-1-ol]",> 401%,
"CCS(=O)(=O)c1ccc2oc(-c3ccc4c(c3)OC(F)(F)O4)nc2c1 [Example 438, 2-(2,2-difluorobenzo[d][1,3]dioxol-5-yl)-5-(ethylsulfonyl)benzo[d]oxazole]",< 200%,
"CCN(CC)S(=O)(=O)c1ccc2oc(-c3ccc(Cl)cc3)nc2c1 [Example 439, 2-(4′-chlorophenyl)-5-(N,N-diethylsulfonamidyl)-benzoxazole]",,Activity [1]: + (Up to 200% relative to control)

SMILES,activity at 10 µM [1],also measured
"Nc1ccc(-c2nc3cc(Cl)c(Cl)cc3o2)cc1 [Example 440, 4-(5,6-dichlorobenzo[d]oxazol-2-yl)aniline]",> 401%,
"CCS(=O)(=O)c1ccc2oc(-c3ccc(C)o3)nc2c1 [Example 441, 5-(ethylsulfonyl)-2-(5-methylfuran-2-yl)benzo[d]oxazole]",301 to 400%,
"CC(C)C(=O)Nc1ccc(-c2nc3c(ccc4ccccc43)o2)cc1 [Example 442, N-(4-(naphtho[1,2-d]oxazol-2-yl)phenyl)isobutyramide]",301 to 400%,
"CCS(=O)(=O)c1ccc2oc(-c3cc(C)cs3)nc2c1 [Example 443, 5-(ethylsulfonyl)-2-(4-methylthiophen-2-yl)benzo[d]oxazole]",> 401%,
"CCS(=O)(=O)c1ccc2oc(-c3ccc4c(c3)CCCC4)nc2c1 [Example 444, 5-(ethylsulfonyl)-2-(5,6,7,8-tetrahydronaphthalen-2-yl)benzo[d]oxazole]",301 to 400%,
"CCS(=O)(=O)c1ccc2oc(-c3ccc4occc4c3)nc2c1 [Example 445, 2-(benzofuran-5-yl)-5-(ethylsulfonyl)benzo[d]oxazole]",> 401%,
"CC(O)c1ccc2oc(-c3ccc(Cl)cc3)nc2c1 (stereo not drawn) [Example 446, 2-(4′-chlorophenyl)-5-(1′-hydroxyethyl)-benzoxazole]",> 401%,
"CCS(=O)(=O)c1ccc2oc(-c3ccc(N)cc3O)nc2c1 [Example 447, 5-Amino-2-(5-(ethylsulfonyl)benzo[d]oxazol-2-yl)phenol]",201 to 300%,
"FC(F)(F)Oc1ccc2oc(-c3ccc4ccccc4c3)nc2c1 [Example 448, 2-(Naphthalen-2-yl)-5-(trifluoromethoxy)benzo[d]oxazole]",> 401%,
"O=C(O)c1ccc2oc(-c3ccc4ccccc4c3)nc2c1 [Example 449, 2-(Naphthalen-2-yl)benzo[d]oxazole-5-carboxylic acid]",> 401%,
"c1ccc2cc(-c3nc4ccccc4o3)ccc2c1 [Example 450, 2-(Naphthalen-2-yl)benzo[d]oxazole]",> 401%,
"CC(C)(C)c1ccc2oc(-c3ccc4ccccc4c3)nc2c1 [Example 451, 5-tert-Butyl-2-(naphthalen-2-yl)benzo[d]oxazole]",< 200%,
"Fc1cc2nc(-c3ccc4ccccc4c3)oc2cc1F [Example 452, 5,6-Difluoro-2-(naphthalen-2-yl)benzo[d]oxazole]",> 401%,
"CC(=O)c1ccc2oc(-c3ccc(Cl)c(Cl)c3)nc2c1 [Example 453, 1-(2′-(3″,4″-Dichlorophenyl)benzo[d]oxazol-5′-yl)ethanone]",,Activity [1]: ++++ (Above 401% relative to control)
"CC(C)C(=O)Nc1ccc(-c2nc3ccccc3o2)cc1 [Example 454, N-(4-(Benzo[d]oxazol-2-yl)phenyl)isobutyramide]",> 401%,
"CC(O)c1ccc2oc(-c3ccc(Cl)c(Cl)c3)nc2c1 (stereo not drawn) [Example 456, 2-(3′,4′-Dichlorophenyl)-5-(1′-hydroxyethyl)-benzoxazole]",> 401%,
"Cc1ccc2nc(-c3ccc(Cl)cc3)oc2c1 [Example 457, 2-(4-Chlorophenyl)-6-methylbenzo[d]oxazole]",> 401%,
"Cc1ccc2oc(-c3ccc4ccccc4c3)nc2c1 [Example 458, 5-Methyl-2-(naphthalen-2-yl)benzo[d]oxazole]",> 401%,
Clc1ccc(SCc2ccc(-c3nc4ccccc4[nH]3)cc2)cc1 [Example 460],,Activity [2]: + (Up to 200% relative to control)
Clc1ccc(OCc2nc3ccccc3[nH]2)c(Cl)c1 [Example 461],,Activity [2]: +++ (Between 301% and 400% relative to control)
Cc1ccc2sc(NC(=O)NC(=O)c3c(Cl)cccc3Cl)nc2c1 [Example 462],,Activity [2]: + (Up to 200% relative to control)
c1csc(-c2nc3ccccc3[nH]2)c1 [Example 463],,Activity [2]: + (Up to 200% relative to control)
O=C(Nc1cccc(-c2nc3ccccc3[nH]2)c1)c1ccccc1 [Example 464],,Activity [2]: + (Up to 200% relative to control)
Clc1ccc(OCc2nc3ccccc3n2Cc2ccccc2Cl)c(Cl)c1 [Example 465],,Activity [2]: + (Up to 200% relative to control)
Cc1nc2ccc(NC(=O)Nc3ccccc3)cc2o1 [Example 466],,Activity [2]: + (Up to 200% relative to control)
CNC(=O)Nc1ccc2nc(C)oc2c1 [Example 467],,Activity [2]: + (Up to 200% relative to control)
Cc1nc2ccc(NC(=O)NC(=O)c3ccccc3Cl)cc2o1 [Example 468],,Activity [2]: + (Up to 200% relative to control)
